US10058540B2, “2-amino-5,5-difluoro-6-(fluoromethyl)-6-phenyl-3,4,5,6-tetrahydropyridines as BACE1 inhibitors” (H. Lundbeck A/S, priority 2014, dated 2018)

Columns and labels:
P-gp (MDR1) = assay: MDCK-MDR1 assay (permeability / Pgp efflux); assay type: in vitro ADME; details: dog, Papp BA/Papp AB, Pgp substrate when ≥2
Procedure: The permeability of the test compounds was assessed in MDCK-MDR1 cells that were cultured to confluency (4-6 days) in a 96 transwell plate. Test compounds were diluted with the transport buffer (HBSS+1% BSA) to a concentration of 0.5 μM and applied to the apical or basolateral side of the cell monolayer. Permeation of the test compounds from A to B direction or B to A direction was determined in triplicate over a 60-minute incubation time at 37° C. and 5% CO2 with a relative humidity of 95%. Test compounds were quantified by LC-MS/MS analysis based on the peaks area ratios of analyte/IS in both the receiver and donor wells of the transwell plate.
The apparent permeability coefficient Papp (cm/s) was calculated using the equation: Papp=(dCr/dt)×Vr/(A×C0) Where dCr/dt is the cumulative concentration of compound in the receiver chamber as a function of time (μM/s); Vr is the solution volume in the receiver chamber (0.05 mL on the apical side; 0.25 mL on the basolateral side); A is the surface area for the transport, i.e. 0.0804 cm^2 for the area of the monolayer; C0 is the initial concentration in the donor chamber (μM).
Compounds are classified Pgp substrates when efflux ratio (Papp BA/Papp AB) is ≥2.

BACE1 [1] = target: T1, BACE1 (Homo sapiens (Human), UniProt P56817); assay: BACE1 efficacy assay (FRET-based, commercial BACE1 kit); assay type: biochemical; details: 10 μM test compound
Procedure: The efficacy assay was performed as a FRET-based assay using a commercially available BACE1 kit (Life Technologies, P2985). 2 μl test compound at 10 μM (final concentration) and 15 μl BACE1 enzyme from the kit (final concentration 3 nM) were preincubated for 15 minutes at room temperature before addition of 15 μl of substrate from the kit (250 nM final concentration) and incubated for additional 90 minutes at room temperature. The assay plate was subsequently read in a Pherastar (Ex540/Em590). The enzyme activity observed in presence of test compound were normalized to the enzyme activity observed in presence of buffer and 10 μM (final concentration) of the high affinity BACE1 reference inhibitor (S)-6-[3-Chloro-5-(5-prop-1-ynyl-pyridin-3-yl)-thiophen-2-yl]-2-imino-3,6-dimethyl-tetra-hydropyrimidin-4-one, respectively. The efficacy of the test compounds was evaluated at 10 μM (final concentration) and defined as the percent inhibition of the enzyme activity using the equation % inhibition=100%−normalized enzyme activity in percent.

BACE1 [2] = target: T1, BACE1; assay: BACE1 binding assay (SPA-based, radioligand); details: pH 4.5, Ki=IC50/(1+L/Kd)
Procedure: The binding assay was performed as SPA-based assay using a biotinylated form of human BACE1 recombinantly expressed and subsequently purified from Freestyle HEK293 cells. The binding assay was run in a 50 mM sodium acetate buffer, pH 4.5 containing 50 mM NaCl and 0.03% Tween-20 in white clear bottom 384 plates (Corning #3653). 10 nM (final concentration) radioligand ([^3H]-N-((1S,2R)-1-benzyl-3-cyclopropylamino-2-hydroxy-propyl)-5-(methanesulfonyl-methyl-amino)-N-((R)-1-phenyl-ethyl)-isophthalamide) (TRQ11569 purchased from GE Healthcare) was mixed with test compound at a given concentration, 6 nM (final concentration) human BACE1 and 25 μg Streptavidin coated PVT core SPA beads (RPNQ0007, GE Healthcare Life Sciences) in a total volume of 40 μl. Several concentrations of each test compound were tested in the assay for IC50 determination. The plates were incubated for one hour at room temperature and counted in a Wallac Trilux counter. Total and non-specific binding were determined using buffer and 1 μM (final concentration) of the high affinity BACE1 reference inhibitor (S)-6-[3-chloro-5-(5-prop-1-ynyl-pyridin-3-yl)-thiophen-2-yl]-2-imino-3,6-dimethyl-tetrahydro-pyrimidin-4-one, respectively. For each test compound, a IC50 value (the concentration mediating 50% inhibition of the specific binding of the radioligand) was determined from concentration-response curve and used to calculate the Ki from the equation Ki=IC50/(1+L/Kd), where L and Kd are the final concentration of the radioligand used in the assay and the dissociation constant of the radioligand, respectively. The Kd of the radioligand was determined from saturation binding experiments.

T1 sequence (P56817 46-501): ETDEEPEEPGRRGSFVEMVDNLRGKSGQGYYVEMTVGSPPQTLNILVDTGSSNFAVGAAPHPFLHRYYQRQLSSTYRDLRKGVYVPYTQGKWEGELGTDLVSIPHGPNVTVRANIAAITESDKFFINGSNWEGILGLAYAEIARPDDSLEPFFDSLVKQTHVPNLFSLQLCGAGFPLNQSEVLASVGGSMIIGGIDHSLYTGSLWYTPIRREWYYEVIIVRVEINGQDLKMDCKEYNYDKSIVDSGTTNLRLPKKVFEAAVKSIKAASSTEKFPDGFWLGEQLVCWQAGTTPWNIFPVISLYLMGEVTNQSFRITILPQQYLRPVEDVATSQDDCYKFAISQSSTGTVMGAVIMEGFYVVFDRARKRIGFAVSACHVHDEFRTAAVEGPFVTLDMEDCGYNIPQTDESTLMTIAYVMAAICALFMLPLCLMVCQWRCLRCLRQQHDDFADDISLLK

efflux ratio at 60 min, 0.5 μM (P-gp (MDR1))	inhibition at 10 µM (BACE1 [1])	Ki (BACE1 [2])	SMILES
2.6	104%	22 nM	NC1=N[C@](CF)(c2cc(NC(=O)c3ccc(F)cn3)ccc2F)C(F)(F)CC1 [Compound 2, (S)-N-(3-(6-amino-3,3-difluoro-2-(fluoromethyl)-2,3,4,5-tetrahydropyridin-2-yl)-4-fluoro-phenyl)-5-fluoropicolinamide]
2.21	111%	16 nM	Cc1cc(C#N)cnc1C(=O)Nc1cc(F)c(F)c([C@@]2(CF)N=C(N)CCC2(F)F)c1 [Compound 17, (S)-N-(3-(6-amino-3,3-difluoro-2-(fluoromethyl)-2,3,4,5-tetrahydropyridin-2-yl)-4,5-difluorophenyl)-5-cyano-3-methylpicolinamide]
3.57	102%	55 nM	Cc1nc(C(=O)Nc2cc(F)c(F)c([C@@]3(CF)N=C(N)CCC3(F)F)c2)co1 [Compound 10, (S)-N-(3-(6-amino-3,3-difluoro-2-(fluoromethyl)-2,3,4,5-tetrahydropyridin-2-yl)-4,5-difluorophenyl)-2-methyloxazole-4-carboxamide]
7.31	102%	15 nM	NC1=N[C@](CF)(c2cc(NC(=O)c3coc(C(F)F)n3)ccc2F)C(F)(F)CC1 [Compound 5, (S)-N-(3-(6-amino-3,3-difluoro-2-(fluoromethyl)-2,3,4,5-tetrahydropyridin-2-yl)-4-fluoro-phenyl)-2-(difluoromethyl)oxazole-4-carboxamide]
1.1	106%	21 nM	[2H]C([2H])([2H])Oc1ccc(C(=O)Nc2cc(F)c(F)c([C@@]3(CF)N=C(N)CCC3(F)F)c2)nc1 [Compound 16, (S)-N-(3-(6-amino-3,3-difluoro-2-(fluoromethyl)-2,3,4,5-tetrahydropyridin-2-yl)-4,5-difluorophenyl)-5-(methoxy-d3)picolinamide]
2.84	104%	13 nM	COc1cnc(C(=O)Nc2ccc(F)c([C@@]3(CF)N=C(N)CCC3(F)F)c2)cn1 [Compound 3, (S)-N-(3-(6-amino-3,3-difluoro-2-(fluoromethyl)-2,3,4,5-tetrahydropyridin-2-yl)-4-fluoro-phenyl)-5-methoxypyrazine-2-carboxamide]
1.75	104%	5.7 nM	NC1=N[C@](CF)(c2cc(NC(=O)c3ccc(Cl)cn3)ccc2F)C(F)(F)CC1 [Compound 1, (S)-N-(3-(6-amino-3,3-difluoro-2-(fluoromethyl)-2,3,4,5-tetrahydropyridin-2-yl)-4-fluorophenyl)-5-chloropicolinamide]
1.11	103%	22 nM	NC1=N[C@](CF)(c2cc(NC(=O)c3ccc(Cl)cn3)cc(F)c2F)C(F)(F)CC1 [Compound 13, (S)-N-(3-(6-amino-3,3-difluoro-2-(fluoromethyl)-2,3,4,5-tetrahydropyridin-2-yl)-4,5-difluorophenyl)-5-chloropicolinamide]
1.59	–	11 nM	NC1=N[C@](CF)(c2cc(NC(=O)c3ccc(Br)cn3)ccc2F)C(F)(F)CC1 [Compound 19, (S)-N-(3-(6-amino-3,3-difluoro-2-(fluoromethyl)-2,3,4,5-tetrahydropyridin-2-yl)-4-fluorophenyl)-5-bromopicolinamide]
2.07	103%	20 nM	N#Cc1ccc(C(=O)Nc2ccc(F)c([C@@]3(CF)N=C(N)CCC3(F)F)c2)nc1 [Compound 6, (S)-N-(3-(6-amino-3,3-difluoro-2-(fluoromethyl)-2,3,4,5-tetrahydropyridin-2-yl)-4-fluoro-phenyl)-5-cyanopicolinamide]
–	109%	25 nM	[2H]C([2H])([2H])Oc1ccc(C(=O)Nc2ccc(F)c([C@@]3(CF)N=C(N)CCC3(F)F)c2)nc1 [Compound 18, (S)-N-(3-(6-amino-3,3-difluoro-2-(fluoromethyl)-2,3,4,5-tetrahydropyridin-2-yl)-4-fluorophenyl)-5-(methoxy-d3)picolinamide]
23.4	–	29 nM	COc1cnc(C(=O)Nc2ccc(F)c([C@@]3(CF)N=C(N)CCC3(F)F)c2)nc1 [Compound 8, (S)-N-(3-(6-amino-3,3-difluoro-2-(fluoromethyl)-2,3,4,5-tetrahydropyridin-2-yl)-4-fluoro-phenyl)-5-methoxypyrimidine-2-carboxamide]
1.76	103%	30 nM	NC1=N[C@](CF)(c2cc(NC(=O)c3cnc(C(F)F)cn3)ccc2F)C(F)(F)CC1 [Compound 9, (S)-N-(3-(6-amino-3,3-difluoro-2-(fluoromethyl)-2,3,4,5-tetrahydropyridin-2-yl)-4-fluoro-phenyl)-5-(difluoromethyl)pyrazine-2-carboxamide]
1.11	101%	84 nM	NC1=N[C@](CF)(c2cc(NC(=O)c3ccc(F)cn3)cc(F)c2F)C(F)(F)CC1 [Compound 12, (S)-N-(3-(6-amino-3,3-difluoro-2-(fluoromethyl)-2,3,4,5-tetrahydropyridin-2-yl)-4,5-difluorophenyl)-5-fluoropicolinamide]
13.8	104%	25 nM	NC1=N[C@](CF)(c2cc(NC(=O)c3ccn(C(F)F)n3)ccc2F)C(F)(F)CC1 [Compound 4, (S)-N-(3-(6-amino-3,3-difluoro-2-(fluoromethyl)-2,3,4,5-tetrahydropyridin-2-yl)-4-fluorophenyl)-1-(difluoromethyl)-1H-pyrazole-3-carboxamide]
1.81	103%	23 nM	N#Cc1ccc(C(=O)Nc2cc(F)c(F)c([C@@]3(CF)N=C(N)CCC3(F)F)c2)nc1 [Compound 14, (S)-N-(3-(6-amino-3,3-difluoro-2-(fluoromethyl)-2,3,4,5-tetrahydropyridin-2-yl)-4,5-difluorophenyl)-5-cyanopicolinamide]
4.59	96%	32 nM	Cc1nc(C(=O)Nc2ccc(F)c([C@@]3(CF)N=C(N)CCC3(F)F)c2)co1 [Compound 7, (S)-N-(3-(6-amino-3,3-difluoro-2-(fluoromethyl)-2,3,4,5-tetrahydropyridin-2-yl)-4-fluoro-phenyl)-2-methyloxazole-4-carboxamide]
